System: MV-4-11 cells
Experiment: Gene expression microarray analysis (Affymetrix PrimeView) and GSEA
Assay type: cell-based, human
Design: RFU PODN (11730768_x_at) / Fold change /veh PODN (11730768_x_at) / RFU LINC00158 (11744669_a_at) / Fold change /veh LINC00158 (11744669_a_at) / RFU DUSP10 (11751237_a_at) / Fold change /veh DUSP10 (11751237_a_at) / RFU ID3 (11757404_x_at) / Fold change /veh ID3 (11757404_x_at) / RFU PLEKHG5 (11737974_s_at) / Fold change /veh PLEKHG5 (11737974_s_at) / RFU LRRC4B (11730491_at) / Fold change /veh LRRC4B (11730491_at) / RFU GIMAP4 (11747438_a_at) / Fold change /veh GIMAP4 (11747438_a_at) / RFU KRT8 (11758183_x_at) / Fold change /veh KRT8 (11758183_x_at) / RFU CNN1 (11734310_a_at) / Fold change /veh CNN1 (11734310_a_at) / RFU VPS37D (11726825_at) / Fold change /veh VPS37D (11726825_at) / RFU C10orf10 (11716522_x_at) / Fold change /veh C10orf10 (11716522_x_at) / RFU KIR2DL2 /// KIR2DL4 /// KIR2DL5A /// KIR2DL5B /// KIR2DS1 /// KIR2DS2 /// KIR2DS3 /// KIR2DS4 /// KIR3DL3 /// KIR3DL3 /// KIR3DS1 (11738374_at) / Fold change /veh KIR2DL2 /// KIR2DL4 /// KIR2DL5A /// KIR2DL5B /// KIR2DS1 /// KIR2DS2 /// KIR2DS3 /// KIR2DS4 /// KIR3DL3 /// KIR3DL3 /// KIR3DS1 (11738374_at) / RFU C1QL1 (11718748_at) / Fold change /veh C1QL1 (11718748_at) / RFU TMPRSS4 (11747572_a_at) / Fold change /veh TMPRSS4 (11747572_a_at) / RFU HAMP (11756126_x_at) / Fold change /veh HAMP (11756126_x_at) / RFU RNFT2 (11725882_a_at) / Fold change /veh RNFT2 (11725882_a_at) / RFU NR4A2 (11747474_a_at) / Fold change /veh NR4A2 (11747474_a_at) / RFU ABCC12 (11746883_a_at) / Fold change /veh ABCC12 (11746883_a_at) / RFU TMEM136 (11760407_x_at) / Fold change /veh TMEM136 (11760407_x_at) / RFU CLDN22 /// WWC2 (11732394_at) / Fold change /veh CLDN22 /// WWC2 (11732394_at) / RFU HLA-DPB1 (11760878_x_at) / Fold change /veh HLA-DPB1 (11760878_x_at) / RFU SPINT1 (11716480_a_at) / Fold change /veh SPINT1 (11716480_a_at) / RFU GAP43 (11754022_s_at) / Fold change /veh GAP43 (11754022_s_at) / RFU A4GNT (11735810_at) / Fold change /veh A4GNT (11735810_at) / RFU PRB3 (11715151_x_at) / Fold change /veh PRB3 (11715151_x_at) / RFU TUBB4B (11761932_at) / Fold change /veh TUBB4B (11761932_at) / RFU CAPN14 (11732068_a_at) / Fold change /veh CAPN14 (11732068_a_at) / RFU TMCC2 (11721928_a_at) / Fold change /veh TMCC2 (11721928_a_at) / RFU IRGQ (11745062_a_at) / Fold change /veh IRGQ (11745062_a_at) / RFU FAM174B (11720279_a_at) / Fold change /veh FAM174B (11720279_a_at) / RFU TMPRSS4 (11748680_a_at) / Fold change /veh TMPRSS4 (11748680_a_at) / RFU FAM212B (11763350_a_at) / Fold change /veh FAM212B (11763350_a_at) / RFU PLEKHG5 (11743358_a_at) / Fold change /veh PLEKHG5 (11743358_a_at) / RFU ZSCAN30 (11745921_a_at) / Fold change /veh ZSCAN30 (11745921_a_at) / RFU CMKLR1 (11741424_a_at) / Fold change /veh CMKLR1 (11741424_a_at) / RFU LOC101060620 /// MAPK8IP1 (11723275_at) / Fold change /veh LOC101060620 /// MAPK8IP1 (11723275_at) / RFU SPTSSB (11747773_x_at) / Fold change /veh SPTSSB (11747773_x_at) / RFU PRSS12 (11739890_at) / Fold change /veh PRSS12 (11739890_at) / RFU BIN1 (11741810_x_at) / Fold change /veh BIN1 (11741810_x_at) / RFU WNT11 (11732464_a_at) / Fold change /veh WNT11 (11732464_a_at) / RFU C10orf10 (11716521_a_at) / Fold change /veh C10orf10 (11716521_a_at) / RFU C5orf56 (11738089_at) / Fold change /veh C5orf56 (11738089_at) / RFU CYB561 (11721691_x_at) / Fold change /veh CYB561 (11721691_x_at) / RFU ANKRD19P (11752326_a_at) / Fold change /veh ANKRD19P (11752326_a_at) / RFU OR2T12 /// OR2T33 /// OR2T8 (11738714_s_at) / Fold change /veh OR2T12 /// OR2T33 /// OR2T8 (11738714_s_at) / RFU VCAN (11748164_a_at) / Fold change /veh VCAN (11748164_a_at) / RFU JSRP1 (11732532_at) / Fold change /veh JSRP1 (11732532_at) / RFU KRTAP10-11 (11738290_x_at) / Fold change /veh KRTAP10-11 (11738290_x_at) / RFU MYO3A (11730013_a_at) / Fold change /veh MYO3A (11730013_a_at) / RFU EBF3 (11725865_a_at) / Fold change /veh EBF3 (11725865_a_at) / RFU CAMK2N1 (11719241_x_at) / Fold change /veh CAMK2N1 (11719241_x_at) / RFU C5orf56 (11738088_a_at) / Fold change /veh C5orf56 (11738088_a_at) / RFU OLFML3 (11715873_a_at) / Fold change /veh OLFML3 (11715873_a_at) / RFU LOC100653217 /// NTM (11731650_a_at) / Fold change /veh LOC100653217 /// NTM (11731650_a_at) / RFU MAPK11 (11762145_a_at) / Fold change /veh MAPK11 (11762145_a_at) / RFU FIZ1 (11724087_x_at) / Fold change /veh FIZ1 (11724087_x_at) / RFU OASL (11726364_x_at) / Fold change /veh OASL (11726364_x_at) / RFU SOX15 (11748057_x_at) / Fold change /veh SOX15 (11748057_x_at) / RFU CD79A (11719716_a_at) / Fold change /veh CD79A (11719716_a_at) / RFU HIST1H1D (11736915_at) / Fold change /veh HIST1H1D (11736915_at) / RFU CASKIN2 (11723855_a_at) / Fold change /veh CASKIN2 (11723855_a_at) / RFU LOC730098 (11760151_x_at) / Fold change /veh LOC730098 (11760151_x_at) / RFU OR4N2 (11742367_at) / Fold change /veh OR4N2 (11742367_at) / RFU PRRT2 (11749266_a_at) / Fold change /veh PRRT2 (11749266_a_at) / RFU SNX32 (11753110_a_at) / Fold change /veh SNX32 (11753110_a_at) / RFU CDHR5 (11726645_a_at) / Fold change /veh CDHR5 (11726645_a_at) / RFU RCAN1 (11760418_a_at) / Fold change /veh RCAN1 (11760418_a_at) / RFU FAM167A (11723789_a_at) / Fold change /veh FAM167A (11723789_a_at) / RFU FAM26E (11764081_at) / Fold change /veh FAM26E (11764081_at) / RFU ISYNA1 (11749810_s_at) / Fold change /veh ISYNA1 (11749810_s_at) / RFU ACY1 (11761880_at) / Fold change /veh ACY1 (11761880_at) / RFU 11764098_at / Fold change /veh 11764098_at / RFU SAMD14 (11745864_x_at) / Fold change /veh SAMD14 (11745864_x_at) / RFU NPB (11741838_a_at) / Fold change /veh NPB (11741838_a_at) / RFU TMPRSS6 (11731388_a_at) / Fold change /veh TMPRSS6 (11731388_a_at) / RFU KRTAP10-2 (11738614_at) / Fold change /veh KRTAP10-2 (11738614_at) / RFU ARHGAP8 /// PRR5-ARHGAP8 (11727945_x_at) / Fold change /veh ARHGAP8 /// PRR5-ARHGAP8 (11727945_x_at) / RFU KRTAP5-7 /// NADSYN1 (11734609_at) / Fold change /veh KRTAP5-7 /// NADSYN1 (11734609_at) / RFU RASL12 (11751679_a_at) / Fold change /veh RASL12 (11751679_a_at) / RFU CDKN2B (11736163_a_at) / Fold change /veh CDKN2B (11736163_a_at) / RFU PRF1 (11729649_at) / Fold change /veh PRF1 (11729649_at) / RFU, ZNF638 /// ZNF638-IT1 / Fold change vs veh, ZNF638 /// ZNF638-IT1 / RFU, PANK3 / Fold change vs veh, PANK3 / RFU, SH3YL1 / Fold change vs veh, SH3YL1 / RFU, ZEB2 / Fold change vs veh, ZEB2 / RFU, NRIP1 / Fold change vs veh, NRIP1 / RFU, PTTG1IP / Fold change vs veh, PTTG1IP / RFU, CAPN2 / Fold change vs veh, CAPN2 / RFU, MED14 / Fold change vs veh, MED14 / RFU, SNORA58 / Fold change vs veh, SNORA58 / RFU, C1orf63 / Fold change vs veh, C1orf63 / RFU, LRRFIP1 / Fold change vs veh, LRRFIP1 / RFU, NDUFAF7 / Fold change vs veh, NDUFAF7 / RFU, SLC12A2 / Fold change vs veh, SLC12A2 / RFU, IBTK / Fold change vs veh, IBTK / RFU, ESF1 / Fold change vs veh, ESF1 / Fold change vs veh, TMEM50B / RFU, TAOK1 / Fold change vs veh, TAOK1 / RFU, ACBD3 / Fold change vs veh, ACBD3 / RFU, TMA16 / Fold change vs veh, TMA16 / RFU, RWDD3 / Fold change vs veh, RWDD3 / RFU, BCAT1 / Fold change vs veh, BCAT1 / RFU, EDEM3 / Fold change vs veh, EDEM3 / RFU, TMEM33 / Fold change vs veh, TMEM33 / RFU, WDR75 / Fold change vs veh, WDR75 / RFU, AHCTF1 / Fold change vs veh, AHCTF1 / RFU, TFRC / Fold change vs veh, TFRC / RFU, ZDHHC17 / Fold change vs veh, ZDHHC17 / RFU, NOM1 / Fold change vs veh, NOM1 / RFU, ARL8B / Fold change vs veh, ARL8B / RFU, ZBTB11 / Fold change vs veh, ZBTB11 / RFU, TAMM41 / Fold change vs veh, TAMM41 / RFU, KIAA1704 /// LOC100996395 / Fold change vs veh, KIAA1704 /// LOC100996395 / RFU, ING1 / Fold change vs veh, ING1 / RFU, TRMT61B / Fold change vs veh, TRMT61B / RFU, FUBP3 / Fold change vs veh, FUBP3 / RFU, TP53 / Fold change vs veh, TP53 / RFU, TNKS2 / Fold change vs veh, TNKS2 / RFU, ZFP14 / Fold change vs veh, ZFP14 / RFU, ACTR2 / Fold change vs veh, ACTR2 / RFU, PPP3R1 / Fold change vs veh, PPP3R1 / RFU, PIK3R1 / Fold change vs veh, PIK3R1 / RFU, HNRNPA1 / Fold change vs veh, HNRNPA1 / RFU, RNF170 / Fold change vs veh, RNF170 / RFU, ZNF28 / Fold change vs veh, ZNF28 / RFU, RNGTT / Fold change vs veh, RNGTT / RFU, OGT / Fold change vs veh, OGT / RFU, BRD1 / Fold change vs veh, BRD1 / RFU, MARS / Fold change vs veh, MARS / RFU, ZNF655 / Fold change vs veh, ZNF655 / RFU, FAHD1 / Fold change vs veh, FAHD1 / RFU, BDP1 / Fold change vs veh, BDP1 / RFU, LRRCC1 / Fold change vs veh, LRRCC1 / RFU, ARID1A / Fold change vs veh, ARID1A / RFU, ZNF146 / Fold change vs veh, ZNF146 / RFU, ZNF330 / Fold change vs veh, ZNF330 / RFU, GPN3 / Fold change vs veh, GPN3 / RFU, C9orf123 / Fold change vs veh, C9orf123 / RFU, N4BP2L2 / Fold change vs veh, N4BP2L2 / RFU, ARFIP1 / Fold change vs veh, ARFIP1 / RFU, FAM179B / Fold change vs veh, FAM179B / RFU, BCL10 / Fold change vs veh, BCL10 / RFU, UHRF1BP1L / Fold change vs veh, UHRF1BP1L / RFU, BET1 / Fold change vs veh, BET1 / RFU, CNOT2 / Fold change vs veh, CNOT2 / RFU, ZNF268 / Fold change vs veh, ZNF268 / Fold change vs veh, ZNF507 / RFU, DGCR2 / Fold change vs veh, DGCR2 / RFU, WDSUB1 / Fold change vs veh, WDSUB1 / Fold change vs veh, HSP90B1 /// MIR3652 / RFU, ADSS / Fold change vs veh, ADSS / RFU, GK / Fold change vs veh, GK / RFU, ZNF148 / Fold change vs veh, ZNF148 / RFU, TAF9 / Fold change vs veh, TAF9 / RFU, SLC1A5 / Fold change vs veh, SLC1A5 / RFU, SLMO2 / Fold change vs veh, SLMO2 / RFU, ABCC4 / Fold change vs veh, ABCC4 / RFU, LOC101060439 /// RAP1B / Fold change vs veh, LOC101060439 /// RAP1B / RFU, RFX7 / Fold change vs veh, RFX7 / RFU, GTPBP10 / Fold change vs veh, GTPBP10 / RFU, CNEP1R1 / Fold change vs veh, CNEP1R1 / RFU, BIVM-ERCC5 /// ERCC5 / Fold change vs veh, BIVM-ERCC5 /// ERCC5 / RFU, ILF3 / Fold change vs veh, ILF3 / RFU 11762660_at / Fold change /veh 11762660_at / RFU VCAN (11757783_s_at) / Fold change /veh VCAN (11757783_s_at) / RFU DDX43 (11728927_at) / Fold change /veh DDX43 (11728927_at) / RFU KRT8 (11758188_x_at) / Fold change /veh KRT8 (11758188_x_at) / RFU NKD1 (11759106_at) / Fold change /veh NKD1 (11759106_at) / RFU SRD5A1 (11742802_a_at) / Fold change /veh SRD5A1 (11742802_a_at) / RFU TPSAB1 /// TPSB2 (11721975_s_at) / Fold change /veh TPSAB1 /// TPSB2 (11721975_s_at) / RFU GSTM3 (11746129_a_at) / Fold change /veh GSTM3 (11746129_a_at) / RFU IL23R (11737362_x_at) / Fold change /veh IL23R (11737362_x_at) / RFU TMEM51 (11727254_a_at) / Fold change /veh TMEM51 (11727254_a_at) / RFU PIWIL2 (11732686_x_at) / Fold change /veh PIWIL2 (11732686_x_at) / RFU ORM1 (11744905_x_at) / Fold change /veh ORM1 (11744905_x_at) / RFU CCDC152 (11743942_at) / Fold change /veh CCDC152 (11743942_at) / RFU ECM1 (11717891_a_at) / Fold change /veh ECM1 (11717891_a_at) / RFU IL23R (11748794_a_at) / Fold change /veh IL23R (11748794_a_at) / RFU TNFAIP8L3 (11732012_x_at) / Fold change /veh TNFAIP8L3 (11732012_x_at) / RFU MBOAT4 (11741988_at) / Fold change /veh MBOAT4 (11741988_at) / RFU 11764193_at / Fold change /veh 11764193_at / RFU TMEM53 (11763286_at) / Fold change /veh TMEM53 (11763286_at) / RFU MAGEB2 (11727129_at) / Fold change /veh MAGEB2 (11727129_at) / RFU TMEM200A (11744735_a_at) / Fold change /veh TMEM200A (11744735_a_at) / RFU CCDC152 (11751479_a_at) / Fold change /veh CCDC152 (11751479_a_at) / RFU FAM211A (11726209_a_at) / Fold change /veh FAM211A (11726209_a_at) / RFU RGS16 (11746705_a_at) / Fold change /veh RGS16 (11746705_a_at) / RFU VCAN (11755009_s_at) / Fold change /veh VCAN (11755009_s_at) / RFU RHOB (11743442_s_at) / Fold change /veh RHOB (11743442_s_at) / RFU RGS16 (11720943_a_at) / Fold change /veh RGS16 (11720943_a_at) / RFU RGS16 (11720944_at) / Fold change /veh RGS16 (11720944_at) / RFU, VPS4B / Fold change vs veh, VPS4B / RFU, CREB1 / Fold change vs veh, CREB1 / RFU, DNAJC13 / Fold change vs veh, DNAJC13 / RFU, GNAQ / Fold change vs veh, GNAQ / RFU, CDK5R1 / Fold change vs veh, CDK5R1 / RFU, ZRANB3 / Fold change vs veh, ZRANB3 / RFU, CUL4A / Fold change vs veh, CUL4A / RFU, CCNY / Fold change vs veh, CCNY / RFU, UFL1 / Fold change vs veh, UFL1 / RFU, COG3 / Fold change vs veh, COG3 / RFU, DIAPH2 / Fold change vs veh, DIAPH2 / RFU, SKA2 / Fold change vs veh, SKA2 / RFU, AFF3 / Fold change vs veh, AFF3 / RFU, LMF1 / Fold change vs veh, LMF1 / RFU, IPO11 / Fold change vs veh, IPO11 / RFU, DFFB / Fold change vs veh, DFFB / RFU, FOXP1 / Fold change vs veh, FOXP1 / RFU, CARD8 / Fold change vs veh, CARD8 / RFU, STRN3 / Fold change vs veh, STRN3 / RFU, ADK / Fold change vs veh, ADK / RFU, RASSF2 / Fold change vs veh, RASSF2 / RFU, WIPF1 / Fold change vs veh, WIPF1 / RFU, LARP1B / Fold change vs veh, LARP1B / RFU, RASA1 / Fold change vs veh, RASA1 / RFU, RB1 / Fold change vs veh, RB1 / RFU, PPFIA1 / Fold change vs veh, PPFIA1 / RFU, MAT2A / Fold change vs veh, MAT2A / RFU, CCT5 / Fold change vs veh, CCT5 / RFU, WDR92 / Fold change vs veh, WDR92 / RFU, CUX1 / Fold change vs veh, CUX1 / RFU, TTC7A / Fold change vs veh, TTC7A / RFU, TMEM135 / Fold change vs veh, TMEM135 / RFU, DEPTOR / Fold change vs veh, DEPTOR / RFU, CPM / Fold change vs veh, CPM / RFU, DNAJB6 / Fold change vs veh, DNAJB6 / RFU, CACNA2D3 / Fold change vs veh, CACNA2D3 / RFU, DTX4 / Fold change vs veh, DTX4 / RFU, TFCP2 / Fold change vs veh, TFCP2 / RFU, GMCL1 /// GMCL1P1 / Fold change vs veh, GMCL1 /// GMCL1P1 / RFU, AEBP2 / Fold change vs veh, AEBP2 / RFU, SNHG1 /// SNORD22 /// SNORD25 /// SNORD26 /// SNORD27 /// SNORD28 /// SNORD29 /// SNORD31 / Fold change vs veh, SNHG1 /// SNORD22 /// SNORD25 /// SNORD26 /// SNORD27 /// SNORD28 /// SNORD29 /// SNORD31 / Fold change (Aza/veh), C12orf56 (ProbeSet 11735607_a_at) / Fold change (ACY-1035/veh), C12orf56 (ProbeSet 11735607_a_at) / Fold change (Aza/veh), FGFR1OP (ProbeSet 11751329_s_at) / Fold change (ACY-1035/veh), FGFR1OP (ProbeSet 11751329_s_at) / Fold change (Aza/veh), VPS36 (ProbeSet 11739960_a_at) / Fold change (ACY-1035/veh), VPS36 (ProbeSet 11739960_a_at) / RFU SYPL1 (11715823_x_at) / Fold change /veh SYPL1 (11715823_x_at) / RFU IGFBP7 (11715501_s_at) / Fold change /veh IGFBP7 (11715501_s_at) / RFU REEP3 (11722064_at) / Fold change /veh REEP3 (11722064_at) / RFU IGLL1 (11728026_x_at) / Fold change /veh IGLL1 (11728026_x_at): dose or concentration left out as unconfirmed
Conditions: ProbeSet 11755436_x_at; LIST B

SMILES: Nc1ncn([C@@H]2O[C@H](CO)[C@@H](O)[C@H]2O)c(=O)n1 [azacitidine]
- Fold change vs veh, ARID1A: 1.10
